Patent publication US20090137667A1, “Pesticide Delivery System” (priority 2006, published 2009)
Where two headings read alike, the source gives them in different places.

Legend:
[1] = Stability and appearance of aqueous dispersions on storage; type: physicochemical; conditions: Table 14, microblend with Pluronic P123:Soprophor BSU 1:1, storage at room temperature
[2] = Particle size of aqueous dispersions by dynamic light scattering; type: physicochemical; conditions: Table 14, microblend with Pluronic P123:Soprophor BSU 1:1, insecticide 4.5 mg/ml, after 2 hours, Nanotrac 250
Description: The suspensions were shaken for 40 h at room temperature followed by centrifugation for 10 min at 13,000 rpm. The concentration of Bifenthrin in the supernatants was determined by UV-spectroscopy. For this purpose, standard solutions containing from 0 to 0.58 mg/ml of Bifenthrin in ethanol were prepared using a stock solution of Bifenthrin in acetonitrile with concentration of 8.7 mg/ml. These solutions were used to obtain a calibration curve by measuring an absorbance at 260 nm using Perkin-Elmer Lambda 25 spectrophotometer. […]
Compositions of insecticides were prepared using melts of mixtures of nonionic block copolymer and ethoxylated surfactants. Specifically, tristyrylphenol etoxylate (Soprophor BSU, Rhodia) was used in combination with Pluronic P123 (PEO20-PPO69-PEO20). 250 mg of Pluronic P123 were mixed with 250 mg of Soprophor BSU, and 50 mg of fine powder of the insecticide, and were melted together for 1 hour. The composition of the copolymer/surfactant mixture was P123:Soprophor=1:1 by weight. The feeding copolymer/surfactant:insecticide ratio was 10:1. The melted compositions were cooled down to room temperature. […] 50 mg of the composition was rehydrated in 1 ml of water upon shaking for 1 hour. The total concentration of copolymer/surfactant components in the mixture was ca. 4.6%. The targeted content of insecticide in the microblend dispersion was 4.5 mg/ml.

[3] = log P measured by the procedure of Donovan and Pescatore, internally standardized with toluene and triphenylene; type: physicochemical
Description: Compositions of herbicides were prepared using melts of mixtures of nonionic block copolymer and ethoxylated surfactants. Specifically, tristyrylphenol etoxylate (Soprophor BSU, Rhodia) was used in combination with Pluronic P123 (PEO20-PPO69-PEO20). The list of the herbicides and corresponding log P values (the log P values were measured according procedure described by Donovan and Pescatore, J Chromatography A 2002, 952, 47-61) are presented in Table 22. All log P values were measured at pH 7, except for clethodim, measured at pH 2. First, a stock blend of Pluronic P123 and Soprophor BSU was prepared by melting together 50 g of Pluronic P123 with 50 g of Soprophor BSU at 70° C. to form a clear, homogeneous melt. Composition of the […]

[4] = cited from earlier work; for Log P: as referred in The Pesticide Manual, 11th edition (Table 18)
[5] = Soil mobility by soil thin layer chromatography (s-TLC); type: physicochemical; conditions: Example 50, 14C-bifenthrin, 10% aqueous dispersions, water eluant
Description: The evaluation of the soil mobility of the bifenthrin microblends according to the invention was performed using soil thin layer chromatography (s-TLC). Air-dried greenhouse topsoil, sieved to pass through with a 250 μm sieve was used to prepare s-TLC plates. Thirty mL of distilled water was added to 60 g of the sieved soil and the mixture was thoroughly grounded until a smooth, moderately fluid slurry was obtained. The soil slurry was quickly spread evenly across a clean grooved glass plate. Plates contained 9×1 cm channels cut to a depth of 2 mm, with the channels spaced 1 cm apart. Plates were allowed to dry at room temperature over 24 hours. A horizontal line was scribed 12.5 cm above the plate base through the soil layer before the soil dried completely. Bifenthrin microblends used in these experiments were prepared using a bifenthrin sample spiked with ^14C-radiolabeled bifenthrin to achieve reasonable sensitivity. Aqueous dispersions of microblends with concentrations of 10% were used in these experiments. Aliquots of each radiolabeled microblend were spotted 1.5 cm above the plate base. ^14C-labeled sulfentrazone and suspension of ^14C-labeled bifenthrin were used as controls. […]
The s-TLC were then scanned for 2 hours using a Packard InstantImager™ TLC plate scanner. Rf values were determined from the images obtained using the following equation (1): […]

[6] = pH 2, pH = 2, based on logP assigned to toluene 2.605 and triphenylene 6.266, read-out: logP, Average
[7] = pH 7, pH = 7, based on logP assigned to toluene 2.605 and triphenylene 6.266, read-out: logP, Average
[8] = pH = 2, based on logP assigned to toluene 2.605 and triphenylene 6.266
[9] = pH = 7, based on logP assigned to toluene 2.605 and triphenylene 6.266
[10] = pH 7, measured at pH 7 (Table 22), read-out: Log P

With `FC(F)(F)c1ccc(OCCCOc2c(Cl)cc(OCC=C(Cl)Cl)cc2Cl)nc1` [Pyridalyl] the “Dispersion appearance in 24 hours” value [1] was “clear” and the “Particle size (nm)” value [2] was 14 nm.
In the case of `O=[N+]([O-])c1c(Cl)c(Cl)c(Cl)c(Cl)c1Cl` [Pentachloronitrobenzene], the chromatographic logP [3, 6] is reported as 5.39 and the chromatographic logP [3, 7] is reported as 5.34.
For `CCCN(CCC)c1c([N+](=O)[O-])cc(C(F)(F)F)c(N)c1[N+](=O)[O-]` [Prodiamine], the “Log P” value [4] is given as 4.10.
For `CON(C)C(=O)Nc1ccc(Cl)c(Cl)c1` [Linuron], the “Log P” value [4] is given as 3.00.
`CCCCOC(=O)C(C)Oc1ccc(Oc2ccc(C(F)(F)F)cn2)cc1` (centres unmarked) [Fluazifop-butyl] gave a chromatographic logP ([3]; pH 2, logP, Average) of 4.44, a chromatographic logP ([3]; pH 7, Log P) of 4.42 and a chromatographic logP ([3]; pH 7, logP, Average) of 4.42.
For `Cc1ccc(N(SC(F)(Cl)Cl)S(=O)(=O)N(C)C)cc1` [Tolyfluanid], the “logP, Average” value [3, 8] was 3.934 and the “logP, Average” value [3, 9] was 3.930.
In the case of `C#CCOC(=O)[C@@H](C)Oc1ccc(Oc2ncc(Cl)cc2F)cc1` [Clodinofop-Propargyl], the “logP, Average” value [3, 8] is reported as 4.519 and the “logP, Average” value [3, 9] is reported as 4.522.
`CCCCOCN(C(=O)CCl)c1c(CC)cccc1CC` [Butachlor] showed a chromatographic logP ([3]; pH 2, logP, Average) of 4.12, a chromatographic logP ([3]; pH 7, Log P) of 4.15 and a chromatographic logP ([3]; pH 7, logP, Average) of 4.15.
With `N#Cc1c(Cl)c(Cl)c(Cl)c(C#N)c1Cl` [Chlorthalonil] the “logP, Average” value [3, 8] was 4.357 and the “logP, Average” value [3, 9] was 4.234.
With Dinocap the “Log P” value ([3]; measured at pH 7 (Table 22)) was 5.43, the “logP, Average” value [3, 8] was 5.457 and the “logP, Average” value [3, 9] was 5.428.
For `CCC(CC)Nc1c([N+](=O)[O-])cc(C)c(C)c1[N+](=O)[O-]` [Prowl], the “logP, Average” value [3, 8] was 5.108 and the “logP, Average” value [3, 9] was 5.101.
In the case of `CCCCCCCC(=O)Oc1c(I)cc(C#N)cc1I` [Ioxynil Octanoate], the chromatographic logP [3, 6] is reported as 5.67, the chromatographic logP [3, 10] is reported as 5.6 and the chromatographic logP [3, 7] is reported as 5.6.
For `CCOC(=O)C(Cl)Cc1cc(-n2nc(C)n(C(F)F)c2=O)c(F)cc1Cl` (centres unmarked) [Carfentrazone-ethyl], the chromatographic logP [3, 6] is listed as 3.99, the chromatographic logP [3, 7] is listed as 4.02 and the “Log P” value [4] is listed as 3.36.
In the case of `Cc1nn(-c2cc(NS(C)(=O)=O)c(Cl)cc2Cl)c(=O)n1C(F)F` [Sulfentrazone], the Rf [5] is reported as 1.0.
In the case of `CSC(=O)c1c(C(F)F)nc(C(F)(F)F)c(C(=O)SC)c1CC(C)C` [Dithiopyr], the chromatographic logP [3, 6] is reported as 4.32, the chromatographic logP [3, 10] is reported as 4.28 and the chromatographic logP [3, 7] is reported as 4.28.
Compound `CCCOC/C(=N\c1ccc(Cl)cc1C(F)(F)F)n1ccnc1` [Triflumizole] has a chromatographic logP ([3]; pH 2, logP, Average) of 2.6 and a chromatographic logP [3, 7] of 3.89.
`CCCCC(O)(Cn1cncn1)c1ccc(Cl)cc1Cl` (centres unmarked) [Hexaconazole] showed a chromatographic logP ([3]; pH 2, logP, Average) of 3.35 and a chromatographic logP ([3]; pH 7, logP, Average) of 3.31.
Compound `OC(Cn1cncn1)(c1ccc(F)cc1)c1ccccc1F` (centres unmarked) [Flutriafol] has a chromatographic logP ([3]; pH 2, logP, Average) of 2.12 and a chromatographic logP ([3]; pH 7, logP, Average) of 2.04.
In the case of Trisulfuron-methyl, the “logP, Average” value [3, 8] is reported as 3.542 and the “logP, Average” value [3, 9] is reported as 0.510.
Work on `COP(=S)(OC)Oc1c(Cl)cc(C)cc1Cl` [Tolclofos-methyl] yielded a chromatographic logP ([3]; pH 2, read-out: logP, Average) of 4.42 and a chromatographic logP ([3]; pH = 7, based on logP assigned to toluene 2.605 and triphenylene 6.266, read-out: logP, Average) of 4.42.
Compound `O=[N+]([O-])c1cc(C(F)(F)F)c(Cl)c([N+](=O)[O-])c1Nc1ncc(C(F)(F)F)cc1Cl` [Fluazinam] has a chromatographic logP [3, 6] of 5.03 and a chromatographic logP [3, 7] of 4.72.
In the case of `Cc1c(COC(=O)[C@@H]2[C@H](/C=C(\Cl)C(F)(F)F)C2(C)C)cccc1-c1ccccc1` (racemic) [Bifenthrin], the “Dispersion appearance in 24 hours” value [1] is listed as “clear”, the “n-octanol partition coefficient, logP” value ([4]; crude Bifenthrin) is listed as > 6 and the “Particle size (nm)” value [2] is listed as 14 nm. It also gave a Rf [5] of 0.00.
With `CCCC1COC(Cn2cncn2)(c2ccc(Cl)cc2Cl)O1` (centres unmarked) [Propiconazole] the chromatographic logP [3, 6] was 3.3 and the chromatographic logP [3, 7] was 3.29.
Compound `CCCCC(C#N)(Cn1cncn1)c1ccc(Cl)cc1` (centres unmarked) [Myclobutanil] has a chromatographic logP [3, 6] of 2.44 and a chromatographic logP [3, 7] of 2.8.
For `N#CC(CCc1ccc(Cl)cc1)(Cn1cncn1)c1ccccc1` (centres unmarked) [Febenuconazole], the “logP, Average” value [3, 8] was 3.716 and the “logP, Average” value [3, 9] was 3.730.
`CC(C)(C)C(O)(CCc1ccc(Cl)cc1)Cn1cncn1` (centres unmarked) [Tebuconazole] gave a chromatographic logP [3, 6] of 3.44 and a chromatographic logP [3, 7] of 3.49.
For `COC[C@H](C)N(C(=O)CCl)c1c(C)csc1C` [Dimethenamid-P], the “Log P” value [4] is given as 2.05.
For `CC1(C)CON(Cc2ccccc2Cl)C1=O` [Clomazone], the “Log P” value [4] is listed as 2.5.
For Spinosad, the “Dispersion appearance in 24 hours” value [1] was “clear” and the “Particle size (nm)” value [2] was 13 nm.
In the case of `CC1(C)C(C=C(Cl)Cl)C1C(=O)OC(C#N)c1cccc(Oc2ccccc2)c1` (centres unmarked) [Cypermethrin], the “Dispersion appearance in 24 hours” value [1] is reported as “clear” and the “Particle size (nm)” value [2] is reported as 14 nm.
For `N#Cc1nn(-c2c(Cl)cc(C(F)(F)F)cc2Cl)c(N)c1[S+]([O-])C(F)(F)F` (centres unmarked) [Fipronil], the “Dispersion appearance in 24 hours” value [1] was “clear” and the “Particle size (nm)” value [2] was 13 nm.
With `CO/C=C(/C(=O)OC)c1ccccc1Oc1cc(Oc2ccccc2C#N)ncn1` [Azoxystrobin] the “logP, Average” value [3, 8] was 3.074 and the “logP, Average” value [3, 9] was 3.050.
In the case of `CCC(CC)Nc1c([N+](=O)[O-])cc(C)c(C)c1[N+](=O)[O-]` [Pendimethalin], the “Log P” value [4] is given as 5.18.
`COC(=O)N(OC)c1ccccc1COc1ccn(-c2ccc(Cl)cc2)n1` [Pyraclostrobin] showed a chromatographic logP [3, 6] of 4.53 and a chromatographic logP [3, 7] of 4.49.
Work on `O=C(Nc1ccc(F)cc1F)c1cccnc1Oc1cccc(C(F)(F)F)c1` [Diflufenican] yielded a chromatographic logP [3, 6] of 4.81, a chromatographic logP [3, 10] of 4.76 and a chromatographic logP [3, 7] of 4.76.
For `CCSC(C)CC1CC(=O)C(/C(CC)=N/OC/C=C/Cl)=C(O)C1` (centres unmarked) [Clethodim], the chromatographic logP ([3]; pH 2, measured at pH 2 (Table 22), read-out: Log P) was 4.24, the chromatographic logP [3, 6] was 4.25 and the chromatographic logP [3, 7] was 0.813.
For `CCCSP(=O)(OCC)Oc1ccc(Br)cc1Cl` (centres unmarked) [Profenofos], the “Dispersion appearance in 24 hours” value [1] was “clear” and the “Particle size (nm)” value [2] was 13 nm.
With Abamectin the “Dispersion appearance in 24 hours” value [1] was “clear” and the “Particle size (nm)” value [2] was 13 nm.
For `CCCN(CCC)c1c([N+](=O)[O-])cc(C(F)(F)F)cc1[N+](=O)[O-]` [Trifluran], the chromatographic logP [3, 10] was 5.08, the “logP, Average” value [3, 8] was 5.108 and the “logP, Average” value [3, 9] was 5.084.
